Measurements reported in US20260200890A1, “ADAR1 INHIBITORS AND METHODS OF USING THE SAME” (AVAMMUNE THERAPEUTICS INC., priority 2022, published 2026).

What was measured:
ADAR1 = target: T1, ADAR1 (Homo sapiens, UniProt P55265); assay: ADAR1 Inhibition Assay (IFN fold-induction, Quanti-Luc luminescence, p110 KO A549 dual cells); format: cell-based; conditions: IFN fold-induction vs DMSO, 24 and 48 h
T1 construct: endogenous in cells; host or cells: p110 KO A549 dual cells
T1 sequence (P55265 1-1226): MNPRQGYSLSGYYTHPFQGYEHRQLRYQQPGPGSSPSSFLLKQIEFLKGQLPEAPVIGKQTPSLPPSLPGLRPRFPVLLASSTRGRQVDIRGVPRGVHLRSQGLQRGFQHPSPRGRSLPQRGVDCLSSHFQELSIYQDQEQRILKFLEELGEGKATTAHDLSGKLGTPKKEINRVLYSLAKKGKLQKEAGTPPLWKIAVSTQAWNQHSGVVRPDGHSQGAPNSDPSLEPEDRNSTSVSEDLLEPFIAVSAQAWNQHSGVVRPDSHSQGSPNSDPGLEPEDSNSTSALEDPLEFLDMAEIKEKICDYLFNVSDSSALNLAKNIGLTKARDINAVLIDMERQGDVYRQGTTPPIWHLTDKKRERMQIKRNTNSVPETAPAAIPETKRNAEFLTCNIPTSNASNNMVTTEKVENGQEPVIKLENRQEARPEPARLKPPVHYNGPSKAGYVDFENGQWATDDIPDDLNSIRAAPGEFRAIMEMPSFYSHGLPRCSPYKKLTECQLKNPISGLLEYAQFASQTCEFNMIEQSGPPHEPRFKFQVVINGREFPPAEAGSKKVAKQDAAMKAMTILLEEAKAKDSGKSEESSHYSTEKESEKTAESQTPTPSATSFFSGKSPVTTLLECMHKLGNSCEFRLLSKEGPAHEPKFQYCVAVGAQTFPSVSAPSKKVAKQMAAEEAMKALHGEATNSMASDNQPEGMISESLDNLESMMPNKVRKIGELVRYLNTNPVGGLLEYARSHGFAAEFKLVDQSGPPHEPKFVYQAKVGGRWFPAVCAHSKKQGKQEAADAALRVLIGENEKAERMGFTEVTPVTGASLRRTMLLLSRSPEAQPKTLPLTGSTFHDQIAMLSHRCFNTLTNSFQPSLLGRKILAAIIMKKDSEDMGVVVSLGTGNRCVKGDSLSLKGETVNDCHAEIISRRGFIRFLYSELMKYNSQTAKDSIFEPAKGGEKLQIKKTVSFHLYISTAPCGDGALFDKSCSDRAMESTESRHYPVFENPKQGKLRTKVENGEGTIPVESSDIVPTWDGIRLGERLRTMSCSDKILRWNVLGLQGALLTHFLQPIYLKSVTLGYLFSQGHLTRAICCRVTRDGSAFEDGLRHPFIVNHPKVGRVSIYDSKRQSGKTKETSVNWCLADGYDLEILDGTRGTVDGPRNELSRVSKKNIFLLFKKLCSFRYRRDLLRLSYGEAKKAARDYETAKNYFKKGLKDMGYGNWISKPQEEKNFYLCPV
Summary of the method: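 p110 KO A549 dual cells (20,000/well) in supplemented DMEM, treated next day with compound at 1% final DMSO for 24 and 48 h at 37 °C, 5% CO2. Supernatant luminescence read with Quanti-Luc; IFN fold-induction = sample RLU/mean DMSO RLU, used for EC50.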

Zα domain of ADAR1 p150 = target: T2, Zα domain of ADAR1 p150 (Homo sapiens, UniProt P55265); assay: SPR binding assay; conditions: 6× his tag Zα domain immobilized on CM5 chip, analyte 0-25 μM
T2 construct: 10 μg/ml of Zα domain of ADAR1 was immobilized on CM5 chip using anti-HIS antibody; made in house
T2 sequence (P55265 133-199 limits assumed): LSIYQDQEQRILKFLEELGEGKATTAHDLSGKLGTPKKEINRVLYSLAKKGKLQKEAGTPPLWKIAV
Description: 6× his tag Za domain of ADAR1 p150 was purified using bacterial purification system. Protein was isolated from supernatant of cell lysate using Ni-NTA resin. For binding assay using SPR, 10 μg/ml of Zα domain of ADAR1 was immobilized on CM5 chip using anti-HIS antibody. Binding was quantified using the following condition below: • Analyte: 25, 12.5, 6.25, 3.125, 1.56, 0.78, 0 μM • Contact time—60 seconds, • Dissociation time—320 seconds • Flow rate—30 μL/minute Running buffer-PBSP+5% DMSO • After curve fitting, Kd values for synthesized compounds was quantified using the instrument software.

Row | SMILES | EC50 (ADAR1) [µM] | Kd (Zα domain of ADAR1 p150) [nM]
1 | CCOC(=O)c1cc(-c2ccccc2)sc1NC(=O)CC(=O)NCc1cccc(NS(C)(=O)=O)c1 [Compound 369] | > 100 | > 25000
2 | CCOC(=O)c1cc(-c2ccccc2)ncc1NC(=O)COC(=O)c1cccc(NS(C)(=O)=O)c1 [Compound 372] | > 100 | > 25000
3 | CCNC(=O)c1cc(-c2ccccc2)sc1NC(=O)CNC(=O)Cc1cccc(NS(C)(=O)=O)c1 [Compound 376] | > 100 | ≤ 1000
4 | CCOC(=O)c1cc(-c2ccccc2)sc1NC(=O)C1CCCCN1C(=O)Cc1cccc(NS(C)(=O)=O)c1 (stereo not drawn) [Compound 380] | > 100 | ≤ 1000
5 | CCNC(=O)c1cc(-c2ccccc2)sc1NC(=O)CN(C)C(=O)Cc1cccc(NS(C)(=O)=O)c1 [Compound 384] | > 100 | 1000 to 10000
6 | CCOC(=O)c1cc(-c2ccccc2)sc1NC(=O)Cn1cc(-c2cccc(P(=O)(OCC)OCC)c2)nn1 [Compound 385] | > 100 | ≤ 1000
7 | CCOC(=O)c1cc(-c2ccccc2)sc1NC(=O)Cn1cc(-c2cccc(P(=O)(O)O)c2)nn1 [Compound 386] | > 100 | > 25000
8 | CCOC(=O)c1cc(-c2ccccc2)ncc1NC(=O)CNC(=O)Cc1cccc(NS(C)(=O)=O)c1 [Compound 387] | > 100 | ≤ 1000
9 | CCOC(=O)c1cc(-c2ccc(P(=O)(O)O)cc2)sc1NC(=O)COC(=O)c1cccc(NS(C)(=O)=O)c1 [Compound 388] | > 100 | ≤ 1000
10 | CCOC(=O)c1cc(-c2ccc(P(=O)(OCC)OCC)cc2)sc1NC(=O)COC(=O)c1cccc(NS(C)(=O)=O)c1 [Compound 389] | > 100 | > 25000
11 | CCOC(=O)c1cc(-c2ccccc2)[nH]c1NC(=O)CNC(=O)c1cccc(NS(C)(=O)=O)c1 [Compound 395] | > 100 | > 25000
12 | CCOC(=O)c1cc(-c2ccccc2)sc1NC(=O)COC(=O)C1(c2cccc(NS(C)(=O)=O)c2)CCCC1 [Compound 396] | > 100 | ≤ 1000
13 | CCOC(=O)c1cc(-c2ccccc2)sc1NC(=O)[C@H]1CCN(Cc2cccc(P(=O)(O)O)c2)C1 [Compound 397] | > 100 | ≤ 1000
14 | CCOC(=O)c1cc(-c2ccccc2)sc1NC(=O)[C@@H]1CCN(Cc2cccc(P(=O)(O)O)c2)C1 [Compound 398] | > 100 | > 25000
15 | CCOC(=O)c1cc(-c2ccccc2)sc1NC(=O)COC(=O)c1cccc(S(=O)(=O)NC(C)=O)c1 [Compound 399] | > 100 | ≤ 1000
16 | CCOC(=O)c1sc(-c2ccccc2)cc1NC(=O)COC(=O)c1cccc(P(=O)(O)O)c1 [Compound 400] | > 100 | 1000 to 10000
17 | CCOC(=O)c1cc(-c2ccccc2)sc1NC(=O)CNC(=O)Cc1ccc(P(=O)(OCC)OCC)cc1 [Compound 402] | 50 to 100 | ≤ 1000
18 | CCOC(=O)c1cc(-c2ccccc2)[nH]c1NC(=O)[C@@H]1CCN(C(=O)c2cccc(P(=O)(OC)OCC)c2)C1 (stereo partly drawn) [Compound 403] | 50 to 100 | > 25000
19 | CCOC(=O)c1cc(-c2ccccc2)sc1NC(=O)CNC(=O)Cc1ccc(P(=O)(O)O)cc1 [Compound 405] | 50 to 100 | ≤ 1000
20 | CCOC(=O)c1cc(-c2ccccc2)sc1NC(=O)[C@H]1CCN(C(=O)c2cccc(P(=O)(OCC)OCC)c2)C1 [Compound 406] | 50 to 100 | ≤ 1000
21 | CCOC(=O)c1cc(-c2ccccc2)sc1NC(=O)Cn1cc(CNC(=O)c2cccc(P(=O)(O)O)c2)nn1 [Compound 409] | > 100 | ≤ 1000
22 | CCOC(=O)c1cc(-c2ccccc2)[nH]c1NC(=O)C1CCN(C(=O)c2cccc(NS(C)(=O)=O)c2)C1 (stereo not drawn) [Compound 412] | > 100 | > 25000
23 | CCOC(=O)c1cc(-c2ccccc2)sc1NC(=O)[C@H]1CCCN1C(=O)c1cccc(P(=O)(O)O)c1 [Compound 414] | > 100 | ≤ 1000
24 | CCOC(=O)c1cc(-c2ccccc2)sc1NC(=O)[C@@H]1CCN(C(=O)c2cccc(P(=O)(OCC)OCC)c2)C1 [Compound 415] | > 100 | ≤ 1000
